Measurements published in PMC10101059, “Rational Design of Stapled Antimicrobial Peptides to Enhance Stability and In Vivo Potency against Polymicrobial Sepsis” (Microbiology Spectrum, 2023).
Values after ≈ are worked out from the molar mass of the structure shown. Like-named read-outs stand apart in the source and are kept apart here.

What was measured:
[1] = tested on: MDR A. baumannii 1702; test: microbe, parasite or virus in culture; assay type: cell-based, Acinetobacter baumannii; conditions: for MBC: read-out: MBC; for MIC: read-out: MIC
Procedure: (§1) The antimicrobial assay was performed according to a modified National Committee for Clinical Laboratory Standards (NCCLS) protocol ([41], [42]). Briefly, 5 × 10^5 CFU/mL bacterial cells were treated with various peptide concentrations and incubated at 37 ± 2°C for 16 to 20 h. The lowest concentration with clear wells was recorded as the MIC for each test molecule. The clear wells were further plated in Mueller-Hinton agar (MHA) plates, followed by incubation overnight at 37 ± 2°C. After plating, the lowest concentration at which no growth was observed was recorded as the MBC. For the serum sensitivity assay, the antimicrobial activity of the peptides was tested in medium containing 50% human serum ([43], [44]).

[2] = tested on: MDR A. baumannii 2982; test: microbe, parasite or virus in culture; assay type: cell-based, Acinetobacter baumannii
Procedure: as §1

[3] = tested on: MDR A. baumannii 921; test: microbe, parasite or virus in culture; assay type: cell-based, Acinetobacter baumannii
Procedure: as §1

[4] = tested on: MDR A. baumannii 2962; test: microbe, parasite or virus in culture; assay type: cell-based, Acinetobacter baumannii
Procedure: as §1

[5] = tested on: MDR A. baumannii 1019; test: microbe, parasite or virus in culture; assay type: cell-based, Acinetobacter baumannii
Procedure: as §1

[6] = tested on: MDR A. baumannii 1607; test: microbe, parasite or virus in culture; assay type: cell-based, Acinetobacter baumannii; conditions: for MBC: read-out: MBC
Procedure: as §1

[7] = tested on: MDR A. baumannii 2088; test: microbe, parasite or virus in culture; assay type: cell-based, Acinetobacter baumannii; conditions: for MBC: read-out: MBC; for MIC: read-out: MIC
Procedure: as §1

[8] = tested on: MDR A. baumannii 14B0091; test: microbe, parasite or virus in culture; assay type: cell-based, Acinetobacter baumannii
Procedure: as §1

[9] = tested on: MDR A. baumannii 3618; test: microbe, parasite or virus in culture; assay type: cell-based, Acinetobacter baumannii
Procedure: as §1

[10] = tested on: MDR A. baumannii 1033; test: microbe, parasite or virus in culture; assay type: cell-based, Acinetobacter baumannii; conditions: for MBC: read-out: MBC; for MIC: read-out: MIC
Procedure: as §1

[11] = tested on: MDR A. baumannii 2997; test: microbe, parasite or virus in culture; assay type: cell-based, Acinetobacter baumannii; conditions: for MBC: read-out: MBC; for MIC: read-out: MIC
Procedure: as §1

[12] = tested on: MDR A. baumannii 2998; test: microbe, parasite or virus in culture; assay type: cell-based, Acinetobacter baumannii; conditions: for MBC: read-out: MBC
Procedure: as §1

[13] = tested on: S enterica; test: Checkerboard microdilution assay (FICI); assay type: cell-based, Salmonella enterica
[14] = tested on: A. baumannii; test: Bacterial killing kinetics; assay type: cell-based, Acinetobacter baumannii; conditions: within 8 h, at respective MBC
Procedure: Mid-log-phase A. baumannii (5 × 10^5 CFU/mL) bacterial cells were treated with the test candidates at appropriate bactericidal concentrations, followed by incubation at 37°C. The treated bacterial cells were plated in MHA to determine the bacterial killing rate as a function of time ([52]).

[15] = tested on: P. aeruginosae; test: microbe, parasite or virus in culture; assay type: cell-based, Pseudomonas aeruginosa
[16] = tested on: A. baumannii biofilm; test: Biofilm rupture assay; assay type: cell-based, Acinetobacter baumannii; conditions: even at 4× MIC
Procedure: (ii) Biofilm rupture assay. Fifty μL of A. baumannii bacterial strains suspension cultures (2 × 10^6 CFU/mL) were plated and incubated in a shaking incubator for 24 h. Then, the wells were washed with PBS and treated with 100 μL of peptide/drug at various concentrations. The plates were incubated for 24 h and then washed with PBS. The wells were treated with 100% methanol for 15 min, and the residual solution was washed followed by drying at room temperature. After the wells were dry, 100 μL of 0.02% crystal violet solution was added, followed by incubation for 30 min at room temperature. The wells were then washed with water and dried for an appropriate length of time. Once the wells were dry, 100 μL of 33% acetic acid was added to the wells and they were incubated at room temperature for 1 h. Absorbance was recorded at 595 nm ([55]).

[17] = tested on: MDR A. baumannii 2088; test: Checkerboard microdilution assay (FICI); assay type: cell-based, Acinetobacter baumannii
Procedure: (§2) The FICI was measured using a standard checkerboard microdilution assay ([57]). Two-fold dilutions of antibiotics were made across the x axis, and two-fold peptide dilutions were made across the y axis. Next, bacteria were added at 5 × 10^5 CFU/well (A. baumannii), followed by incubation at 37 ± 2°C for 16 to 20 h. FIC indices were calculated according to the following equations: FICI = FIC1 + FIC2; FIC1 = (MIC12 combined)/MIC1; FIC2 = (MIC12 combined)/MIC2. The combined efficacy was estimated as follows: FICI ≤ 0.5, synergistic; 0.5 to 1, additive; 1 to 2, indifferent; ≥2, antagonistic.

[18] = tested on: MDR A. baumannii 3618; test: Checkerboard microdilution assay (FICI); assay type: cell-based, Acinetobacter baumannii
Procedure: as §2

[19] = tested on: MDR A. baumannii 1033; test: Checkerboard microdilution assay (FICI); assay type: cell-based, Acinetobacter baumannii
Procedure: as §2

[20] = tested on: MDR A. baumannii 2997; test: Checkerboard microdilution assay (FICI); assay type: cell-based, Acinetobacter baumannii
Procedure: as §2

[21] = tested on: MDR A. baumannii 2998; test: Checkerboard microdilution assay (FICI); assay type: cell-based, Acinetobacter baumannii
Procedure: as §2

[22] = Acinetobacter baumannii, MHB medium
[23] = HS, MH medium containing 50% human serum
[24] = MIC of each agent in combination, TP4-3 and M
[25] = Acinetobacter baumannii, read-out: Single drug treatment MIC

## C[C@@H](O)[C@H]1C(=O)N2C(C(=O)O)=C(S[C@@H]3CN[C@H](C(=O)N(C)C)C3)[C@H](C)[C@H]12 [Meropenem]
[1]; [22]
  MBC: > 25 µM
  MIC: > 25 µM
[1]; [23]
  MBC: >25 µM
  MIC: >25 µM
[2]; [22]
  MBC: > 25 µM
  MIC: > 25 µM
[2]; [23]
  MBC: >25 µM
  MIC: >25 µM
[3]; [22]
  MBC: > 25 µM
  MIC: > 25 µM
[3]; [23]
  MBC: >25 µM
  MIC: >25 µM
[4]; [22]
  MBC: > 25 µM
  MIC: > 25 µM
[4]; [23]
  MBC: >25 µM
  MIC: >25 µM
[5]; [22]
  MBC: > 25 µM
  MIC: > 25 µM
[5]; [23]
  MBC: >25 µM
  MIC: >25 µM
[6]; [22]
  MIC: > 25 µM
  MBC: > 25 µM
[6]; [23]
  MIC: >25 µM
  MBC: >25 µM
[7]; [22]
  MBC: > 25 µM
  MIC: > 25 µM
[7]; [23]
  MBC: >25 µM
  MIC: >25 µM
[8]; [22]
  MBC: > 25 µM
  MIC: > 25 µM
[8]; [23]
  MBC: >25 µM
  MIC: >25 µM
[9]; [22]
  MBC: > 25 µM
  MIC: > 25 µM
[9]; [23]
  MBC: >25 µM
  MIC: >25 µM
[10]; [22]
  MBC: > 25 µM
  MIC: > 25 µM
[10]; [23]
  MBC: >25 µM
  MIC: >25 µM
[11]; [22]
  MBC: > 25 µM
  MIC: > 25 µM
[11]; [23]
  MBC: >25 µM
  MIC: >25 µM
[12]; [22]
  MIC: > 25 µM
  MBC: > 25 µM
[12]; [23]
  MIC: >25 µM
  MBC: >25 µM
[13]; [24]
  TP4-3 and meropenem combined MIC: 0.19 µM
[13]; Salmonella enterica, read-out: Single drug treatment MIC
  MIC: 6.25 µM
[14]
  reduction of the bacterial population: approximately half
[15]; [24]
  TP4-3 and meropenem combined MIC: 0.78 µM
[15]; Pseudomonas aeruginosa, read-out: Single drug treatment MIC
  MIC: 0.39 µM (≈ 0.15 µg/mL)
[16]
  mature biofilm rupture: minor potential for causing biofilm rupture
[17]; [25]
  MIC: 400 µM
[17]; [24]
  TP4-3 and meropenem combined MIC: 100 µM
[18]; [25]
  MIC: 200 µM
[18]; [24]
  TP4-3 and meropenem combined MIC: 25 µM
[19]; [25]
  MIC: 200 µM
[19]; [24]
  TP4-3 and meropenem combined MIC: 50 µM
[20]; [25]
  MIC: 200 µM
[20]; [24]
  TP4-3 and meropenem combined MIC: 12.5 µM
[21]; [25]
  MIC: 400 µM
[21]; [24]
  TP4-3 and meropenem combined MIC: 50 µM
